Legend:
Cholinesterase [1] = molecular target: Cholinesterase (Equus caballus, UniProt P81908); assay: Inhibition of equine serum BChE using S-butyrylthiocholine iodide as substrate preincubated for 60 mins followed by substrate addition and measured for 5 mins by Ellman's method
Acetylcholinesterase [2] = molecular target: Acetylcholinesterase (Electrophorus electricus, UniProt O42275); assay: Inhibition of electric eel AChE using S-acetylthiocholine iodide as substrate preincubated for 60 mins followed by substrate addition and measured for 5 mins by Ellman's method
Sequence of Acetylcholinesterase (Electrophorus electricus, UniProt O42275) (O42275 whole entry): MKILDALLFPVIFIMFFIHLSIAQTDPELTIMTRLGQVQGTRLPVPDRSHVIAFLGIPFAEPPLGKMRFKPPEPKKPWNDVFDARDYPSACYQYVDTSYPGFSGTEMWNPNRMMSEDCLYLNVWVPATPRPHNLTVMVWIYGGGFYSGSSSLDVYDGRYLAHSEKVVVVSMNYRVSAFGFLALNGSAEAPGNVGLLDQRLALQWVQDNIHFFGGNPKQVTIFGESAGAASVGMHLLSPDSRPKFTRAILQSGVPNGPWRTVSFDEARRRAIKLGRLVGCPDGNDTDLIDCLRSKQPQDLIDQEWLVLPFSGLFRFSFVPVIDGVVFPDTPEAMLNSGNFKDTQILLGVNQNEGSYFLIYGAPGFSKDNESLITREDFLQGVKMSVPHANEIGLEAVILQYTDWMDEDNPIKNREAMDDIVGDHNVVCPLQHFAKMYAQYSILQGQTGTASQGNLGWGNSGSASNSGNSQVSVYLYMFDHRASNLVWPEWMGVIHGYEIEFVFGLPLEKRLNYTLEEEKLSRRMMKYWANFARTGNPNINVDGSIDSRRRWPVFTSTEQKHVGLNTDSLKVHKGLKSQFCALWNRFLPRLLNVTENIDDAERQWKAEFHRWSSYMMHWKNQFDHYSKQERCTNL

Cholinesterase [3] = molecular target: T1, Cholinesterase (Homo sapiens, UniProt P06276); assay: Inhibition of human plasma BChE using S-butyrylthiocholine iodide as substrate preincubated for 60 mins followed by substrate addition and measured for 5 mins by Ellman's method
T1 sequence (P06276 whole entry): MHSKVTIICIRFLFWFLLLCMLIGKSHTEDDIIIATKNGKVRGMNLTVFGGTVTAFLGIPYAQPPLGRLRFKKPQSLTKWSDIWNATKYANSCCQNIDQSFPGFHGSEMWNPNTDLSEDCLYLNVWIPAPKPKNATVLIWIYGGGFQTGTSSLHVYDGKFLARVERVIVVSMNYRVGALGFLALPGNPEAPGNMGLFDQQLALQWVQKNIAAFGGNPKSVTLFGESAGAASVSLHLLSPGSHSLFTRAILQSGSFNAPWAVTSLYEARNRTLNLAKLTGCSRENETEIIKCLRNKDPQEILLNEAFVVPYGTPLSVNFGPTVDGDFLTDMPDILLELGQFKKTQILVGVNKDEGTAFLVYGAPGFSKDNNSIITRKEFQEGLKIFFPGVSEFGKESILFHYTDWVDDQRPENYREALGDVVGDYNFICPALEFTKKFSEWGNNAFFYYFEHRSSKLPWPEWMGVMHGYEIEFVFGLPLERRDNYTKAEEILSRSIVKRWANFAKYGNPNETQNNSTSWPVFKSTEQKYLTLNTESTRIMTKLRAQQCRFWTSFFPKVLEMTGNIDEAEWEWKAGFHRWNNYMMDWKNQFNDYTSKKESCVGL

Acetylcholinesterase [4] = molecular target: Acetylcholinesterase (Homo sapiens, UniProt P22303); assay: Inhibition of human erythrocyte AChE using S-acetylthiocholine iodide as substrate preincubated for 60 mins followed by substrate addition and measured for 5 mins by Ellman's method
Sequence of Acetylcholinesterase (Homo sapiens, UniProt P22303) (P22303 whole entry): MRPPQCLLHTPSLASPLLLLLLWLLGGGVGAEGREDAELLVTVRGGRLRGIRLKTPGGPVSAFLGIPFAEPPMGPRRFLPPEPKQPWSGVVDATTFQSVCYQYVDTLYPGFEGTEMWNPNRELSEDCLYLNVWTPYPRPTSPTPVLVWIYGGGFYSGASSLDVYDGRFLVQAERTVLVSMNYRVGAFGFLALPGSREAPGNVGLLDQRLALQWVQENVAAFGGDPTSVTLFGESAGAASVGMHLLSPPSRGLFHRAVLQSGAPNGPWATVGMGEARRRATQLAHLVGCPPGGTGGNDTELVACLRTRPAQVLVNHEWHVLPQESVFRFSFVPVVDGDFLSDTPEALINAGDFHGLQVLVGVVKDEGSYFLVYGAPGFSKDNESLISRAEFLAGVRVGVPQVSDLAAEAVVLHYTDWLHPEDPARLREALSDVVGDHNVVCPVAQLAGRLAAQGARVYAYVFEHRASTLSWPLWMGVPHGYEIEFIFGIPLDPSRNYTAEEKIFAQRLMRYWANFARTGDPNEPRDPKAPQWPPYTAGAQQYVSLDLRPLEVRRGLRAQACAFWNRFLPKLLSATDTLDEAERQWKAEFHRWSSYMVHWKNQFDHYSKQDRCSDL

Cholinesterase [5] = molecular target: T1, Cholinesterase; assay: Potency index, ratio of test compound to rivastigmine for inhibition of human plasma BChE assessed as second order carbamylation rate constant using S-butyrylthiocholine iodide as substrate
Cholinesterase [6] = molecular target: T1, Cholinesterase; assay: Inhibition of human plasma BChE assessed as decarbamylation rate constant using S-butyrylthiocholine iodide as substrate preincubated for 15 to 60 mins followed by substrate addition by Ellman's method
Cholinesterase [7] = molecular target: T1, Cholinesterase; assay: Inhibition of human plasma BChE using S-butyrylthiocholine iodide as substrate preincubated for 20 to 60 mins followed by substrate addition and measured for 5 mins by Ellman's method
Cholinesterase [8] = molecular target: T1, Cholinesterase; assay: Inhibition of human plasma BChE at 15 to 100 nM using S-butyrylthiocholine iodide as substrate incubated prior to substrate measured for 5 mins by Ellman's method; conditions: TDE = time-dependent effect
Cholinesterase [9] = molecular target: T1, Cholinesterase; assay: Inhibition of human plasma BChE assessed as second order carbamylation rate constant using S-butyrylthiocholine iodide as substrate preincubated for 15 to 60 mins followed by substrate addition by Ellman's method
Cholinesterase [10] = molecular target: T1, Cholinesterase; assay: Inhibition of human plasma BChE at 2.5 to 25 nM using S-butyrylthiocholine iodide as substrate incubated prior to substrate addition and measured for 5 mins by Ellman's method; conditions: TDE = time-dependent effect

Sequence of Cholinesterase (Equus caballus, UniProt P81908) (P81908 whole entry): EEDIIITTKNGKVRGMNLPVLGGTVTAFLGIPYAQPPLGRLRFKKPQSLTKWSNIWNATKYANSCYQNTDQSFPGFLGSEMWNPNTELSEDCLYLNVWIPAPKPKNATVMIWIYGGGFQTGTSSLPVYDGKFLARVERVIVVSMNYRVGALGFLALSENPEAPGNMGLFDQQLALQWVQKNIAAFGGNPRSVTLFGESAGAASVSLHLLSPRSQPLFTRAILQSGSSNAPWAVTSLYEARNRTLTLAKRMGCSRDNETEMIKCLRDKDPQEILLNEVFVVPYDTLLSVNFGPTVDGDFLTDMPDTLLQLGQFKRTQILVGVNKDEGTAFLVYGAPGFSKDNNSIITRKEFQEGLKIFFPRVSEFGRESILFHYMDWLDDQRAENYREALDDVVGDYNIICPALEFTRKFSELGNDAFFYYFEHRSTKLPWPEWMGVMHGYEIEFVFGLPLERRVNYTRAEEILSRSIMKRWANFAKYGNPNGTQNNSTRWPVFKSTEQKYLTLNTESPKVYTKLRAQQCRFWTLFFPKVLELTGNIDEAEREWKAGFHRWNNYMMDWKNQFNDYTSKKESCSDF

| Structure (SMILES) | IC50 (Cholinesterase [1]) | IC50 (Acetylcholinesterase [2]) | further results |
| --- | --- | --- | --- |
| CN(C)C(=O)Oc1cccc(C(O)CN2CCOCC2)c1 (stereo not drawn) | 2190 nM | > 100000 nM |  |
| C#Cc1cccc(NCC(O)c2cccc(OC(=O)N(C)C)c2)c1 (stereo not drawn) | 154 nM | 70500 nM |  |
| CN(C)C(=O)Oc1ccc(C(O)CNC2CCCCC2)cc1 (stereo not drawn) | 27 nM | 655 nM | IC50 (Cholinesterase [3]): 10600 nM; IC50 (Acetylcholinesterase [4]): 266000 nM; Ratio (Cholinesterase [5]): 20; K (Cholinesterase [6]): 14.8 ×10⁻³ /min; inhibition (Cholinesterase [7]): Dose-dependent effect; inhibition (Cholinesterase [8]): Tde; K (Cholinesterase [9]): 206 ×10⁴ /M/min |
| CN(C)C(=O)Oc1cccc(C(O)CNc2ccc(I)cc2)c1 (stereo not drawn) | 381 nM | 28900 nM |  |
| CN(C)C(=O)Oc1cccc(C(O)CNC(C)(C)c2ccccc2)c1 (stereo not drawn) | 303 nM | 7120 nM |  |
| CN(C)C(=O)Oc1cccc(C(O)CNC2CCCC2)c1 (stereo not drawn) | 57 nM | 1390 nM |  |
| CCN(C)C(=O)Oc1cccc([C@H](C)N(C)C)c1 |  |  | K (Cholinesterase [6]): 2.3 ×10⁻³ /min; K (Cholinesterase [9]): 33.3 ×10⁴ /M/min |
| CN(C)C(=O)Oc1ccc(C(O)CN2CCCCC2)cc1 (stereo not drawn) | 245 nM | 3510 nM |  |
| CCC(C)(C)NCC(O)c1ccc(OC(=O)N(C)C)cc1 (stereo not drawn) | 1570 nM | 15900 nM |  |
| CN(C)C(=O)Oc1cccc(C(O)CNC2CCCCC2)c1 (stereo not drawn) | 8 nM | 1870 nM | inhibition (Cholinesterase [10]): Tde; IC50 (Cholinesterase [3]): 2200 nM; IC50 (Acetylcholinesterase [4]): 792000 nM; Ratio (Cholinesterase [5]): 10; K (Cholinesterase [6]): 18.9 ×10⁻³ /min; inhibition (Cholinesterase [7]): Dose-dependent effect; K (Cholinesterase [9]): 1110 ×10⁴ /M/min |
| CN(C)C(=O)Oc1cccc(C(O)CN2CCCCC2)c1 (stereo not drawn) | 97 nM | 3740 nM |  |
| CN(C)C(=O)Oc1cccc(C(O)CN2CCCC2)c1 (stereo not drawn) | 179 nM | 3150 nM |  |
| CN(C)C(=O)Oc1cccc(C(O)CNC(C)(C)C)c1 (stereo not drawn) | 383 nM | 6080 nM |  |
| CCC(C)(C)NCC(O)c1cccc(OC(=O)N(C)C)c1 (stereo not drawn) | 180 nM | 4150 nM |  |
| CN(C)C(=O)Oc1cccc(C(O)CNc2ccccc2)c1 (stereo not drawn) | 282 nM | 67500 nM |  |
| CN(C)C(=O)Oc1ccc(C(O)CNC(C)(C)C)cc1 (stereo not drawn) | 5370 nM | 15000 nM |  |
| CN(C)C(=O)Oc1cccc(C(O)CNc2ccc(F)cc2)c1 (stereo not drawn) | 194 nM | 45400 nM |  |

Source: ChEMBL document CHEMBL4627270, “Design, synthesis and biological evaluation of novel carbamates as potential inhibitors of acetylcholinesterase and butyrylcholinesterase” (Bioorg Med Chem, 2020)
